Measurements from ChEMBL document CHEMBL4325859, “Research advances on anticancer activities of matrine and its derivatives: An updated overview” (Eur J Med Chem, 2019).
Converted amounts (≈) assume the structure as drawn.

Tests used:
[1] = Growth inhibition of human MM1R cells at […] after 24 hrs relative to control; format: functional; conditions: MM.1R, read-out: GI
HeLa [2] = experiment: Induction of apoptosis in human HeLa cells at 25 ug/ml after 48 hrs by Annexin V-FITC/propidium iodide staining based flow cytometry relative to control; format: functional
SMMC-7721 [3] = experiment: Antiproliferative activity against human SMMC7721 cells at 5 ug/ml after 72 hrs by MTT assay relative to control; format: functional
HT-29 [4] = experiment: Growth inhibition of human HT-29 cells at 32 ml/L after 36 hrs by MTT assay relative to control; format: functional
DLD-1 = experiment: Growth inhibition of human DLD1 cells after 24 hrs by MTT assay; format: functional, cell-based; conditions: DLD-1, 24 h
PC-3 [5] = experiment: Induction of apoptosis in human PC3 cells assessed as late apoptotic cells at […] (reference value: 2.5%); format: functional
CCRF-CEM [6] = experiment: Antiproliferative activity against human CCRF-CEM cells after 48 hrs by WST1 assay; format: functional, cell-based
LoVo [7] = experiment: Antiproliferative activity against human LoVo cells after 48 hrs by MTT assay; format: functional, cell-based
RPMI-8226 [8] = experiment: Growth inhibition of human RPMI8226 cells after 24 hrs; format: functional, cell-based; conditions: RPMI-8226, 24 h
[9] = Growth inhibition of human GRC1 cells at 0.8 g/L after 24 hrs by MTT assay relative to control; format: functional; conditions: read-out: GI
D341 cell line = experiment: Growth inhibition of human D341 cells at 2 mg/ml after 72 hrs by CCK8 assay relative to control; format: functional; conditions: D341, 72 h, read-out: GI
M21 [10] = experiment: Growth inhibition of human M21 cells after 48 hrs by MTT assay; format: functional, cell-based; conditions: M21, 48 h
A549 = experiment: Antiproliferative activity against human A549 cells at 1.5 g/L after 12 to 48 hrs by MTT assay relative to control; format: functional
[11] = Growth inhibition of human GRC1 cells at 0.3 g/L after 48 hrs by MTT assay relative to control; format: functional; conditions: read-out: GI
[12] = Growth inhibition of human GRC1 cells at 0.8 g/L after 96 hrs by MTT assay relative to control; format: functional; conditions: read-out: GI
PANC-1 = experiment: Induction of apoptosis in human PANC1 cells at 0.25 mg/ml by flow cytometry (reference value: 4.13%); format: functional
[13] = Growth inhibition of human GRC1 cells at 0.8 g/L after 72 hrs by MTT assay relative to control; format: functional; conditions: read-out: GI
NB-4 = experiment: Antiproliferative activity against human NB4 cells after 24 hrs by MTT assay; format: functional, cell-based; conditions: NB-4, 24 h
CCRF-CEM [14] = experiment: Antiproliferative activity against human CCRF-CEM cells after 72 hrs by WST1 assay; format: functional, cell-based
U2OS = experiment: Growth inhibition of human U2OS cells at 3.2 mg/ml after 48 hrs by MTT assay relative to control; format: functional; conditions: read-out: GI
UMR108 = experiment: Growth inhibition of rat UMR108 cells assessed as cell proliferation at 0.5 mg/ml after 48 hrs by MTT assay (reference value: 0.404 +/- 0.008%); format: functional; conditions: UMR108, 48 h, read-out: Activity
LoVo [15] = experiment: Antiproliferative activity against human LoVo cells after 72 hrs by MTT assay; format: functional, cell-based
HT-29 [16] = experiment: Growth inhibition of human HT-29 cells at 16 ml/L after 36 hrs by MTT assay relative to control; format: functional
MM1.S = experiment: Growth inhibition of human MM1S cells after 24 hrs; format: functional, cell-based
PC-3 [17] = experiment: Induction of apoptosis in human PC3 cells assessed as late apoptotic cells at 25 mg/mL (reference value: 2.5%); format: functional
SMMC-7721 [18] = experiment: Antiproliferative activity against human SMMC7721 cells at 200 ug/ml after 72 hrs by MTT assay relative to control; format: functional
[19] = Growth inhibition of human GRC1 cells at 1 g/L after 48 hrs by MTT assay relative to control; format: functional; conditions: read-out: GI
HT-29 [20] = experiment: Growth inhibition of human HT-29 cells at 0.5 mg/ml by MTT assay relative to control; format: functional; conditions: read-out: GI
HT-29 [21] = experiment: Growth inhibition of human HT-29 cells at 0.25 mg/ml by MTT assay relative to control; format: functional; conditions: read-out: GI
[22] = Growth inhibition of human GRC1 cells at 1.5 g/L after 24 hrs by MTT assay relative to control; format: functional; conditions: read-out: GI
HT-29 [23] = experiment: Growth inhibition of human HT-29 cells at 16 ml/L after 24 hrs by MTT assay relative to control; format: functional
HT-29 [24] = experiment: Growth inhibition of human HT-29 cells at 2 mg/ml by MTT assay relative to control; format: functional; conditions: read-out: GI
HT-29 [25] = experiment: Growth inhibition of human HT-29 cells at 2 ml/L after 36 hrs by MTT assay relative to control; format: functional
[26] = Growth inhibition of human GRC1 cells at 1.5 g/L after 72 hrs by MTT assay relative to control; format: functional; conditions: read-out: GI
[27] = Antiproliferative activity against human GBC-SD cells after 24 hrs by MTT assay; format: functional, cell-based
[28] = Growth inhibition of human GRC1 cells at 1 g/L after 24 hrs by MTT assay relative to control; format: functional; conditions: read-out: GI
PC-3 [29] = experiment: Growth inhibition of human PC3 cells at 6 g/L after 72 hrs relative to control; format: functional; conditions: PC-3, 72 h, read-out: GI
C-33-A = experiment: Induction of apoptosis in human C33A cells at 50 ug/ml after 48 hrs by Annexin V-FITC/propidium iodide staining based flow cytometry relative to control; format: functional
[30] = Antiproliferative activity against human 95-D cells at 2 g/L after 48 hrs by MTT assay relative to control; format: functional
4T1 = experiment: Antiproliferative activity against mouse 4T1 cells after 48 hrs by MTT assay; format: functional, cell-based; conditions: 4T1, 48 h
RPMI-8226 [31] = experiment: Growth inhibition of human RPMI8226 cells at […] after 24 hrs relative to control; format: functional; conditions: RPMI-8226, 24 h, read-out: GI
HeLa [32] = experiment: Induction of apoptosis in human HeLa cells at 100 ug/ml after 48 hrs by Annexin V-FITC/propidium iodide staining based flow cytometry relative to control; format: functional
RPMI-8226 [33] = experiment: Induction of apoptosis in human RPMI8226 cells at 1.5 g/L after 48 hrs by Annexin V-FITC/propidium iodide staining based flow cytometry (Rvb < 3%); format: functional
BXPC-3 = experiment: Induction of apoptosis in human BxPC3 cells at 0.75 mg/ml by flow cytometry (reference value: 2.81%); format: functional
M21 [34] = experiment: Induction of apoptosis in human M21 cells at 0.4 mg/ml after 48 hrs by Annexin V-FITC/propidium iodide staining based flow cytometry relative to control; format: functional
HT-29 [35] = experiment: Growth inhibition of human HT-29 cells at 2 ml/L after 48 hrs by MTT assay relative to control; format: functional
CCRF-CEM [36] = experiment: Induction of apoptosis in human CCRF-CEM cells at antiproliferative IC50 after 72 hrs by Annexin V/propidium iodide staining based assay (reference value: 0.8%); format: functional

O=C1CCC[C@@H]2[C@H]3CCCN4CCC[C@@H](CN12)[C@@H]34 [MATRINE]
inhibition of growth at 2 g/mL [1]: 74%
Activity (HeLa [2]): 8.91%
Activity (SMMC-7721 [3]): 3%
growth inhibition (GI) (HT-29 [4]): 77.14%
IC50 (DLD-1): 6.32 mM
Activity (PC-3 [5]): 20.5%
IC50 (CCRF-CEM [6]): 9.67 mM
IC50 (LoVo [7]): 2.97 mM
IC50 (RPMI-8226 [8]): 4.35 mM
inhibition of growth at 800 µg/mL [9]: 20.5%
inhibition of growth at 2000 µg/mL (D341 cell line): 59.3%
IC50 (M21 [10]): 3.1 mM
Activity (A549): 30%
inhibition of growth at 300 µg/mL [11]: 8.8%
inhibition of growth at 800 µg/mL [12]: 36.2%
Activity (PANC-1): 8.71%
inhibition of growth at 800 µg/mL [13]: 25.4%
IC50 (NB-4): 0.00266 mM
IC50 (CCRF-CEM [14]): 9.63 mM
inhibition of growth at 3200 µg/mL (U2OS): 77%
growth at 500 µg/mL (UMR108): 0.313%
IC50 (LoVo [15]): 1.66 mM
growth inhibition (GI) (HT-29 [16]): 68.29%
IC50 (MM1.S): 4.95 mM
Activity (PC-3 [17]): 14.6%
Activity (SMMC-7721 [18]): 77.4%
inhibition of growth at 1000 µg/mL [19]: 25.4%
inhibition of growth at 500 µg/mL (HT-29 [20]): 26.9%
inhibition of growth at 250 µg/mL (HT-29 [21]): 12.2%
inhibition of growth at 1500 µg/mL [22]: 31.6%
growth inhibition (GI) (HT-29 [23]): 59.35%
inhibition of growth at 2000 µg/mL (HT-29 [24]): 52.9%
growth inhibition (GI) (HT-29 [25]): 22.06%
inhibition of growth at 1500 µg/mL [26]: 34%
IC50 [27]: 3.6 mM
inhibition of growth at 1000 µg/mL [28]: 23.6%
inhibition of growth at 6000 µg/mL (PC-3 [29]): 90%
Activity (C-33-A): 15.37%
Activity [30]: 20%
IC50 (4T1): 1110 µg/mL (≈ 4.47 mM)
inhibition of growth at 2 g/mL (RPMI-8226 [31]): 74%
Activity (HeLa [32]): 38.41%
Activity (RPMI-8226 [33]): 32.89%
Activity (BXPC-3): 48.83%
Activity (M21 [34]): 34.8%
growth inhibition (GI) (HT-29 [35]): 29.73%
Activity (CCRF-CEM [36]): 5.4%
